In patent publication US20260263624A1, “COMBINATION OF ANTIBODY-DRUG CONJUGATE AND CANCER THERAPY, AND USE THEREOF” (GENEQUANTUM HEALTHCARE (SUZHOU) CO., LTD., priority 2023, published 2026):

Experiments:
[1] = system: human breast cancer HER2 IHC 3+ PDX model; assay: In vivo efficacy of GQ01 with TKIs in human breast cancer PDX model (Example 1); design: species or system NOD SCID mice; conditions: GQ01 5 mg/kg Q3W×2, combination 5 + 20 mg/kg; for TGI (%): day 77; for Tumor volume (mm^3), Mean ± SEM: end day (day 77)
Description: I. The tumor tissues of PDX model were extracted from the tumor-bearing mice and then transferred to culture medium, cut into small fragments, and inoculated subcutaneously at the right flank of SPF female NOD SCID mice aged 6~8 weeks.
II. The tumor diameter was measured with a caliper and the tumor volume was calculated according to the formula V=0.5 a×b^2 (wherein a is the long diameter of the tumor and b is the short diameter of the tumor). […] The tumor volume of mice in each group was measured twice a week.

[2] = system: breast cancer HER2 IHC 3+ PDX model (primary resistance to palbociclib); assay: In vivo efficacy of GQ01 with TKIs in human breast cancer PDX model, primary resistance to palbociclib (Example 2); design: species or system NCG mice; conditions: GQ01 5 mg/kg on day 0 and day 28; for TGI (%): day 49; for Tumor volume (mm^3), Mean ± SEM: end day (day 49)
Description: The model was derived from a patient with Stage III invasive breast cancer who developed metastases to lung and bone after surgery.
I. The tumor tissues of PDX model were extracted from the tumor-bearing mice and were transferred to culture medium, cut into small fragments, and inoculated subcutaneously in the right flank of SPF female NCG mice aged 6~8 weeks.
(§1) II. 30 days after inoculation, the tumor diameter was measured with a caliper and the tumor volume was calculated according to the formula V=0.5 a×b^2 (wherein a is the long diameter of the tumor and b is the short diameter of the tumor). […] Each group included 6 mice. The day of first administration was defined as day 0. […] The tumor volume of mice was measured twice a week.

[3] = system: human breast cancer HER2 IHC 3+ PDX model (acquired resistance to trastuzumab and pertuzumab, primary resistance to pyrotinib); assay: In vivo efficacy of GQ01 with TKIs in human breast cancer PDX model resistant to trastuzumab, pertuzumab and pyrotinib (Example 3); design: species or system NCG mice; conditions: for TGI (%): day 42; for TGI (%) / Tumor volume (mm^3), Mean ± SEM: GQ01 3 mg/kg on day 0 and 5 mg/kg on day 21; for Tumor volume (mm^3), Mean ± SEM: end day (day 42)
Description: This model was derived from a patient with Stage III invasive breast cancer, who was assessed as acquired drug resistance to trastuzumab and pertuzumab and primary resistance to pyrotinib based on the history of treatments.
I. The tumor tissues of PDX model were extracted from the tumor-bearing mice and were transferred to culture medium, cut into small fragments, and then inoculated subcutaneously in the right flank of SPF female NCG mice aged 6~8 weeks.
as §1, with “II. 29 days after” for “II. 30 days after”, “formula V=0.5 a×b2 (wherein a” for “formula V=0.5 a×b^2 (wherein a”, “of mice in each group was measured” for “of mice was measured”

[4] = system: gastric cancer HER2 IHC 3+ PDX model; assay: In vivo efficacy of GQ01 with TKIs in human gastric cancer PDX model (Example 4); design: species or system Nu/Nu mice; conditions: for TGI (%): day 35; for TGI (%) / Tumor volume (mm^3), Mean ± SEM: GQ01 10 mg/kg single dose; for Tumor volume (mm^3), Mean ± SEM: end day (day 35); for PD (response status, share of animals): 6 mice per group, GQ01 10 mg/kg
Description: I. The tumor tissues of PDX model were extracted from the tumor-bearing mice and were transferred to RPMI-1640 culture medium, cut into small fragments, and then inoculated subcutaneously in the right flank of SPF female Nu/Nu mice aged 6~8 weeks.
as §1, with “II. 14 days after” for “II. 30 days after”, “formula V=0.5 a×b2 (wherein a” for “formula V=0.5 a×b^2 (wherein a”, “of mice in each group was measured” for “of mice was measured”
The response status were calculated based on the diameters or disappearance of target lesions.

[5] = neratinib 20 mg/kg QD×2W+QD×2W, listed as neratinib
[6] = pyrotinib 20 mg/kg QD×2W+QD×2W, listed as pyrotinib
[7] = pyrotinib 20 mg/kg QD day 0-13, 28-41, combination 5 + 20 mg/kg
[8] = pyrotinib 20 mg/kg QD day 0-13, 28-41, combination 5 + 20 mg/kg, listed as pyrotinib
[9] = pyrotinib 20 mg/kg QD day 0-13, 21-34, combination 3/5 + 20 mg/kg
[10] = pyrotinib 20 mg/kg QD day 0-13, 21-34, combination 3/5 + 20 mg/kg, listed as pyrotinib
[11] = pyrotinib 20 mg/kg QD 2 weeks, combination 10 + 20 mg/kg
[12] = pyrotinib 20 mg/kg QD 2 weeks, combination 10 + 20 mg/kg, listed as pyrotinib
[13] = tucatinib 20 mg/kg BID×2W+BID×2W
[14] = tucatinib 20 mg/kg BID×2W+BID×2W, listed as tucatinib
[15] = tucatinib 50 mg/kg QD day 0-13, 28-41, combination 5 + 50 mg/kg
[16] = tucatinib 50 mg/kg QD day 0-13, 28-41, combination 5 + 50 mg/kg, listed as tucatinib
[17] = tucatinib 50 mg/kg QD day 0-13, 21-34, combination 3/5 + 50 mg/kg
[18] = tucatinib 50 mg/kg QD day 0-13, 21-34, combination 3/5 + 50 mg/kg, listed as tucatinib
[19] = tucatinib 50 mg/kg QD 2 weeks, combination 10 + 50 mg/kg
[20] = tucatinib 50 mg/kg QD 2 weeks, combination 10 + 50 mg/kg, listed as tucatinib

SMILES: CCOc1cc2ncc(C#N)c(Nc3ccc(OCc4ccccn4)c(Cl)c3)c2cc1NC(=O)/C=C/CN(C)C [Neratinib, neratinib]
- TGI (%) ([1]; neratinib 20 mg/kg QD×2W+QD×2W): 61.80%
- TGI (%) [1, 5]: 61.80%
- Tumor volume (mm^3), Mean ± SEM ([1]; neratinib 20 mg/kg QD×2W+QD×2W): 724 ± 114 mm^3
- Tumor volume (mm^3), Mean ± SEM [1, 5]: 724 mm^3

SMILES: CCOc1cc2ncc(C#N)c(Nc3ccc(OCc4ccccn4)c(Cl)c3)c2cc1NC(=O)/C=C/[C@H]1CCCN1C [Pyrotinib, pyrotinib]
- TGI (%) ([1]; pyrotinib 20 mg/kg QD×2W+QD×2W): 34.93%
- TGI (%) [1, 6]: 34.93%
- Tumor volume (mm^3), Mean ± SEM ([1]; pyrotinib 20 mg/kg QD×2W+QD×2W): 1108 ± 202 mm^3
- Tumor volume (mm^3), Mean ± SEM [1, 6]: 1108 mm^3
- TGI (%) [2, 7]: −2.65%
- TGI (%) [2, 8]: −2.65%
- Tumor volume (mm^3), Mean ± SEM [2, 7]: 740.71 ± 146.76 mm^3
- Tumor volume (mm^3), Mean ± SEM [2, 8]: 741 mm^3
- TGI (%) [3, 9]: 10.08%
- TGI (%) [3, 10]: 10.08%
- Tumor volume (mm^3), Mean ± SEM [3, 9]: 1333.21 ± 217.85 mm^3
- Tumor volume (mm^3), Mean ± SEM [3, 10]: 1333 mm^3
- TGI (%) [4, 11]: 83.09%
- TGI (%) [4, 12]: 83.09%
- Tumor volume (mm^3), Mean ± SEM [4, 11]: 233.72 ± 39.7 mm^3
- Tumor volume (mm^3), Mean ± SEM [4, 12]: 234 mm^3
- PD (response status, share of animals) ([4]; pyrotinib arm table, pyrotinib 20 mg/kg, dash = no animal in this class): 83.33%

SMILES: Cc1cc(Nc2ncnc3ccc(NC4=NC(C)(C)CO4)cc23)ccc1Oc1ccn2ncnc2c1 [Tucatinib, tucatinib]
- TGI (%) [1, 13]: 51.08%
- TGI (%) [1, 14]: 51.08%
- Tumor volume (mm^3), Mean ± SEM [1, 13]: 879 ± 216 mm^3
- Tumor volume (mm^3), Mean ± SEM [1, 14]: 879 mm^3
- TGI (%) [2, 15]: −1.09%
- TGI (%) [2, 16]: −1.09%
- Tumor volume (mm^3), Mean ± SEM [2, 15]: 732.33 ± 137.71 mm^3
- Tumor volume (mm^3), Mean ± SEM [2, 16]: 732 mm^3
- TGI (%) [3, 17]: −6.46%
- TGI (%) [3, 18]: −6.46%
- Tumor volume (mm^3), Mean ± SEM [3, 17]: 1557.77 ± 178.71 mm^3
- Tumor volume (mm^3), Mean ± SEM [3, 18]: 1558 mm^3
- response of the model to treatment, in words ([3]; tucatinib 50 mg/kg QD day 0-13, 21-34): doesn't respond
- TGI (%) [4, 19]: 48.94%
- TGI (%) [4, 20]: 48.94%
- Tumor volume (mm^3), Mean ± SEM [4, 19]: 399.97 ± 43.87 mm^3
- Tumor volume (mm^3), Mean ± SEM [4, 20]: 400 mm^3
- PD (response status, share of animals) ([4]; tucatinib arm table, tucatinib 50 mg/kg): 100%
